# Values quoted from earlier work, collected in PMC6108082 (Journal of medicinal chemistry, 2018).
# Tested on: P-glycoprotein
smiles,measurement,value
"CCCc1ccc(-c2ccc(N(C[C@@H](N)[C@@H](C)CC)C(=O)[C@@H]3C[C@H]3c3ccccn3)cc2)cc1.Cl [compound 1, 2-PCCA]",P-glycoprotein substrate activity,substrate of P-glycoprotein
